According to publication PMC6556873, “Rapid Covalent-Probe Discovery by Electrophile-Fragment Screening” (Journal of the American Chemical Society, 2019):
Where two headings read alike, the source gives them in different places.

Columns and labels:
in vitro [1] = assay: in vitro; design: species or system HB2, CCD841; conditions: human, hek293 cells
in vitro [2] = assay: in vitro; design: species or system CCD841, HEK293; conditions: human, hb2 cells, read-out: HB-2 Cells Viability (%)
in vitro [3] = assay: in vitro; design: species or system HB2, HEK293; conditions: human, ccd841 cells
BSA = target: T1, BSA (Bos taurus, UniProt P02769); design: Intact protein LC/MS covalent labelling, fragments in pools of five, 200 uM each, 4 °C; conditions: 24 h, 4 °C, pool of five; 200 µM; covalent
T1 construct: gene ALB

NUDT7 = target: T2, NUDT7 (Homo sapiens, UniProt P0C024); design: Intact protein LC/MS covalent labelling, fragments in pools of five, 200 uM each, 4 °C; conditions: 24 h, 4 °C, pool of five; 200 µM; covalent
T2 construct: residues 14-235, E. coli, pNIC28-Bsa4, N-terminal His6 tag removed by TEV, construct 26672 Da

PCAF = target: T3, PCAF (Homo sapiens, UniProt Q92831); design: Intact protein LC/MS covalent labelling, fragments in pools of five, 200 uM each, 4 °C; conditions: 24 h, 4 °C, pool of five; 200 µM; covalent
T3 construct: gene KAT2B

NNMT (hNNMT) = target: T4, NNMT (hNNMT) (Homo sapiens, UniProt P40261); design: Intact protein LC/MS covalent labelling, fragments in pools of five, 200 uM each, 4 °C; conditions: 24 h, 4 °C, pool of five; 200 µM; covalent
T4 construct: wild type, N-terminal His6 tag kept (no cleavage described), E. coli, construct 31248 Da
T4 sequence (P40261 1-264): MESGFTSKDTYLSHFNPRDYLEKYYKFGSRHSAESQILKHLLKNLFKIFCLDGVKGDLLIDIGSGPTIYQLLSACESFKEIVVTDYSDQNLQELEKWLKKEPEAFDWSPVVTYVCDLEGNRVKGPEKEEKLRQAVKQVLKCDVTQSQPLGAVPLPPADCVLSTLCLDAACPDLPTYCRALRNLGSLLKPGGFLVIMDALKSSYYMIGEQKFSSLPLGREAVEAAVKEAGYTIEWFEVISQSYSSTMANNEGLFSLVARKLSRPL

OTUB2 (OTUB2A) = target: T5, OTUB2 (OTUB2A) (Homo sapiens, UniProt Q96DC9); design: Intact protein LC/MS covalent labelling, fragments in pools of five, 200 uM each, 4 °C; conditions: 24 h, 4 °C, pool of five; 200 µM; covalent
T5 construct: full length residues 1-234, E. coli BL21(DE3)-R3, His tag removed by TEV, construct 27312 Da
T5 sequence (Q96DC9 1-234): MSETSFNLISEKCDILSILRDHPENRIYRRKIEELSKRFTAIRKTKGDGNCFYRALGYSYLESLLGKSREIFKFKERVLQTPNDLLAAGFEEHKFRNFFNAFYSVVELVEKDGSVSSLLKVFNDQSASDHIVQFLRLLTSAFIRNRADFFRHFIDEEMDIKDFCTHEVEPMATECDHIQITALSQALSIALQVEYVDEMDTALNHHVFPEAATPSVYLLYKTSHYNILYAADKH

T2 sequence (P0C024 14-235): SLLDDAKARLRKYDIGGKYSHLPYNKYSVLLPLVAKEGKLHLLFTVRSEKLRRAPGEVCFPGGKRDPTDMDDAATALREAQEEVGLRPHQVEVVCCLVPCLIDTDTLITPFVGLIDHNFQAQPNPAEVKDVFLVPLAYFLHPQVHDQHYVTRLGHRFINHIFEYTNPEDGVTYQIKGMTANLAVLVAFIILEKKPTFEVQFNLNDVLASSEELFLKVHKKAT
T3 sequence (Q92831 whole entry, the tested form may be a part): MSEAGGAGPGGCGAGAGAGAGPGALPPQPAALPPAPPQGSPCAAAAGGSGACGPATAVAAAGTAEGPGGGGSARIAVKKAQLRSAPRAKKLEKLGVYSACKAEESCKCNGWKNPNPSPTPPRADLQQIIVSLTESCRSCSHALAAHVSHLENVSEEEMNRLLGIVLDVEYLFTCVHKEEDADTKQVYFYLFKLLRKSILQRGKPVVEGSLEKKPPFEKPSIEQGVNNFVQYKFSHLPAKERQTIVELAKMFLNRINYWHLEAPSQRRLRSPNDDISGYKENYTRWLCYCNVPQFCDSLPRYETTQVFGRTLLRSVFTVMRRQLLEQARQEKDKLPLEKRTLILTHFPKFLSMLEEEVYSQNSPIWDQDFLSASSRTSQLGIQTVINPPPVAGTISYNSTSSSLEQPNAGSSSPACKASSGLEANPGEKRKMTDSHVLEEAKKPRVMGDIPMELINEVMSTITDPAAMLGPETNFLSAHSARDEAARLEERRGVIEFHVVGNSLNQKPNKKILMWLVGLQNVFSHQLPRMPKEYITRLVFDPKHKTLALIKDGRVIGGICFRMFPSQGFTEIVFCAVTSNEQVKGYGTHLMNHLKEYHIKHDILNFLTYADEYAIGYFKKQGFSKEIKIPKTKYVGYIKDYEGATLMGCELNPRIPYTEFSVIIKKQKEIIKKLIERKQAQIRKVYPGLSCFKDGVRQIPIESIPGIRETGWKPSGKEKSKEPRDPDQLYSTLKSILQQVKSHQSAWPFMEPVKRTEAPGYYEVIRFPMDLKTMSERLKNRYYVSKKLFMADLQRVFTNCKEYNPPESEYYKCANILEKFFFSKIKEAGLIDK
T1 sequence (P02769 whole entry, the tested form may be a part): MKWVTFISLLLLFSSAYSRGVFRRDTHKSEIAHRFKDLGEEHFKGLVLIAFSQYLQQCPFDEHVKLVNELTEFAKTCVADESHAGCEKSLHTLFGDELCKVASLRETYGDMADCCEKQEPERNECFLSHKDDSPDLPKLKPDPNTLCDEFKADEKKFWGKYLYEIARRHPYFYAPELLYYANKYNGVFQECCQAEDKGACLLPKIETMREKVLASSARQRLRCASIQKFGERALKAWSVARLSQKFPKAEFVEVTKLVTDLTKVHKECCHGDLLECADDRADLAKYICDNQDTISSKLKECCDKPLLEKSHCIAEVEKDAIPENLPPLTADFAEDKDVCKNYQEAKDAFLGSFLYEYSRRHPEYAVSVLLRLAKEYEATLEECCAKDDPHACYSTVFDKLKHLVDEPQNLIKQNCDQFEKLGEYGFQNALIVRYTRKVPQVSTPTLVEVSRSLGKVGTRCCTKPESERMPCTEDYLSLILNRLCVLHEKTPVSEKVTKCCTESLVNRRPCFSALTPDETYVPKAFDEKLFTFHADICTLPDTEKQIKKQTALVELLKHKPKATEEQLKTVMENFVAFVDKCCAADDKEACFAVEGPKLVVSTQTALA

| BSA (BSA) | NUDT7 (NUDT7) | PCAF (PCAF) | NNMT (NNMT (hNNMT)) | OTUB2 (OTUB2 (OTUB2A)) | Compound | viability at 48 h, 10 µM (in vitro [1]) | viability at 48 h, 10 µM (in vitro [2]) | viability at 48 h, 10 µM (in vitro [3]) |
| --- | --- | --- | --- | --- | --- | --- | --- | --- |
| 0 | 0.22 | 0 | 0 | 0.29 | CC(NC(=O)CCl)c1ccc2c(c1)CC(=O)N2 (stereo not drawn) [PCM-0102816] | 74.8% | 94.8% | 86% |
| 0 | 0 | 0 | 0.29 | 0.86 | Cc1cccc(CNC(=O)CCl)c1 [PCM-0102821] | 87.5% | 99.7% | 80.7% |
| 0 | 0 | 0 | 0 | 0 | O=C(CCl)NC(=O)CN1CCCC1=O [PCM-0102824] | 110% | 105% | 111% |
| 0 | 0 | 0 | 0 | 0.3 | Cc1ccccc1CC(=O)NNC(=O)CCl [PCM-0102829] | 104% | 90.9% | 83.9% |
| 0 | 0 | 0 | 0 | 0 | O=C(CCl)N=c1sccn1Cc1cccc2ccccc12 [PCM-0102842] | 5.2% | 8.4% | 4.2% |
| 0 | 0 | 0 | 0 | 0.13 | Cc1ccc(S(=O)(=O)NC(=O)CCl)cc1 [PCM-0102850] | 81.4% | 101% | 114% |
| 0 | 0 | 0 | 0.24 | 0 | CC(C)(C)CCNC(=O)CCl [PCM-0102853] | 102% | 99.7% | 91.6% |
| 0 | 0.09 | 0 | 0 | 0 | N#CC1(NC(=O)CCl)CCC1 [PCM-0102854] | 93.1% | 90% | 81.1% |
| 0 | 0 | 0 | 0 | 0.41 | N#Cc1cccc(C(=O)NNC(=O)CCl)c1 [PCM-0102857] | 102% | 103% | 82.6% |
| 0 | 0 | 0 | 0 | 0 | CCOC(=O)N1CCN(C(=O)CCl)CC1 [PCM-0102861] | 82.6% | 114% | 109% |
| 0 | 0 | 0 | 0.29 | 0.14 | O=C(CCl)NC1CCCC(C(F)(F)F)C1 (stereo not drawn) [PCM-0102862] | 84% | 95% | 106% |
| 0 | 0 | 0 | 0 | 0.3 | O=C(CCl)Nc1ccc2[nH]c(=O)[nH]c2c1 [PCM-0102866] | 27.5% | 77.3% | 73.7% |
| 0 | 0 | 0 | 0 | 0 | CC1CCCN(C(=O)CCl)C1 (stereo not drawn) [PCM-0102867] | 103% | 102% | 104% |
| 0 | 0 | 0 | 0 | 0.44 | O=C(CCl)NC1CCOc2ccccc21 (stereo not drawn) [PCM-0102871] | 69.5% | 92.9% | 87.1% |
| 0.17 | 0 | 0 | 0 | 0 | COc1cc(=O)[nH]c(NC(=O)CCl)n1 [PCM-0102873] | 114% | 99.9% | 100% |
| 0 | 0 | 0 | 0 | 0 | Cc1ccccc1CN1CCN(C(=O)CCl)CC1.Cl [PCM-0102876] | 38.1% | 31.1% | 69.2% |
| 0 | 0 | 0 | 0 | 0 | C=CC(=O)NC(=O)Nc1ccccc1 [PCM-0102883] | 4% | 5.4% | 17.8% |
| 0 | 0 | 0 | 0 | 0.21 | O=C(CCl)NNC(=O)c1ccc([N+](=O)[O-])cc1 [PCM-0102885] | 92.9% | 91% | 83.3% |
| 0 | 0 | 0 | 0 | 0 | C=CC(=O)N1CCN(C2CCCN(C3CCOCC3)C2=O)CC1 (stereo not drawn) [PCM-0102886] | 104% | 106% | 105% |
| 0 | 0 | 0 | 0 | 0.14 | N#Cc1ccc(C(=O)NNC(=O)CCl)cc1 [PCM-0102892] | 103% | 86.2% | 85.9% |
| 0 | 0.14 | 0 | 0.62 | 0 | O=C(CCl)Nc1cccc(Cl)c1N1CCOCC1 [PCM-0102893] | 26.9% | 51.2% | 78% |
| 0 | 0.29 | 0 | 0.47 | 0 | CN(Cc1ccc(Cl)s1)C(=O)CCl [PCM-0102898] | 7.8% | 11% | 46.5% |
| 0 | 0 | 0 | 0 | 0 | O=C(CCl)NC(=O)Cc1ccccc1 [PCM-0102902] | 116% | 104% | 117% |
| 0 | 0.29 | 0 | 0 | 0.14 | NS(=O)(=O)c1ccccc1NC(=O)CCl [PCM-0102903] | 69.7% | 65.4% | 55.2% |
| 0 | 0 | 0 | 0 | 0 | COCC(=O)NC(=O)CCl [PCM-0102904] | 105% | 101% | 116% |
| 0 | 0.1 | 0 | 0.2 | 0.07 | Cl.O=C(CCl)N1CCN(c2ccc(F)cc2)CC1 [PCM-0102905] | 56.8% | 24.7% | 77% |
| 0 | 0 | 0 | 0 | 0 | C=CC(=O)N1CCCC(Cc2nnc3ccccn23)C1 (stereo not drawn) [PCM-0102909] | 108% | 101% | 87.9% |
